# Assay results reported in patent EP4717275A1, “ANTI-LUNG CANCER COMBINED DRUG AND USE THEREOF” (Gunagdong Yinzhu Pharmaceutical Technology Co., Ltd, priority 2023, dated 2024).
# Marks after values point to notes of the source that are not given here.
# Columns and labels:
# mouse melanoma = conditions: transplanted tumors, dexamethasone by intraperitoneal injection; cited from earlier work
# [1] = tested on: human lung cancer NCI-H2228 xenografts; assay: Therapeutic effect in vivo on NCI-H2228 xenografts in nude mice; set-up: species or system BALB/c Nude mice; conditions: PO; for Relative tumor proliferation rate(%) Day 21: %T/CRTV; for Tumor growth inhibition rate(%) Day 21: %TGITV from tumor volume vs control; for Tumor growth inhibition rate(%) Day 21 / Tumor volume (mm^3,Mean±SEM) Day 21 / Relative tumor volume Day 21: QD× 21; for Tumor inhibition rate(%) Day 21: %TGITW from tumor weight vs control; for Tumor volume (mm^3,Mean±SEM) Day 21: QD×21, dose per group; for Relative tumor volume Day 21: RTV = Vt/V0, Mean ± SEM
# Experimental: BALB/c Nude mice, female, 8-10 weeks old, 18-20g. The variation of the body weight is ±20% around average body weight. 80 mice were inoculated and 60 mice were grouped.
# Table 9 Experimental design of therapeutic effect of the drugs in vivo
# NCI-H2228 cells were cultured in RPMI 1640 medium supplemented with 10% FBS and maintained in a 37°C, 5% CO2 humidified incubator.
# Log-phase NCI-H2228 cells were harvested, resuspended in RPMI 1640 basal medium containing 50% Matrigel, and adjusted to a concentration of 2 × 10^7 cells/mL. Under aseptic conditions, 0.1 mL of the cell suspension was injected subcutaneously into the right flank of mice at a concentration of 2 × 10^6 cells/0.1 mL/mouse.
# When the mean tumor volume reached approximately 150 mm^3, animals were randomly grouped based on tumor volume, ensuring inter-group tumor volume variation was less than 10% of the mean.
# The grouping day was designated as Day 0, and administration commenced according to animal body weight.
# The same as the therapeutic effect evaluation experiments for Examples 1-2 and Comparative Examples 1-3.
# [2] = tested on: human lung cancer NCI-H1975 xenografts; assay: Therapeutic effect in vivo on NCI-H1975 xenografts in nude mice; set-up: species or system BALB/c Nude mice; conditions: PO; for Relative tumor proliferation rate(%) Day 21: %T/CRTV; for Tumor growth inhibition rate(%) Day 21: %TGITV from tumor volume vs control; for Tumor inhibition rate(%) Day 21: %TGITW from tumor weight vs control; for Tumor volume (mm^3,Mean±SEM) Day 21: QD×21, dose per group; for Relative tumor volume Day 21: RTV = Vt/V0, Mean ± SEM
# Experimental: BALB/c Nude mice, female, 8-10 weeks old, 18-20g. […] Table 2 Experimental design of therapeutic effect of the drugs in vivo […] NCI-H1975 cells were cultured in RPMI 1640 medium supplemented with 10% FBS and maintained in a 37°C, 5% CO2 humidified incubator. Log-phase NCI-H1975 cells were harvested, resuspended in RPMI 1640 basal medium containing 50% Matrigel, and adjusted to a concentration of 2 × 10^7 cells/mL. Under aseptic conditions, 0.1 mL of the cell suspension was injected subcutaneously into the right flank of mice at a concentration of 2 × 10^6 cells/0.1 mL/mouse. […] The grouping day was designated as Day 0, and administration commenced according to animal body weight. […] Animal body weight and tumor volume were measured twice weekly throughout the experiment. Tumor length and width were measured using a digital caliper, with tumor volume estimated from these measurements. After the final weighing on Day 21, remaining animals were euthanized with CO2. Tumors were weighed, photographed, and the experiment concluded. […] Tumor growth inhibition rate (%TGITV) is calculated as: […] Relative Tumor Volume (RTV) is calculated as Vt/V0, where V0 is the tumor volume at grouping and Vt is the tumor volume at each measurement. Relative Tumor Growth Rate (%T/CRTV) is calculated as TRTV/CRTV × 100%, where TRTV is the RTV of the treatment group and CRTV is the RTV of the negative control group. Tumor growth inhibition rate (%TGITW) is calculated as: ([…] × 100%, where TWc is the average tumor weight in the negative control group and TWT is the average tumor weight in the treatment group. […] Drug-related animal mortality exceeding 20% indicates severe toxicity at that dose. All experimental data in this study are expressed as Mean ± SEM. The evaluation of the combination index (CI) of drugs relies on the following equation: […]), wherein E(A+B) is the inhibition rate of combination drug, EA and EB is the inhibition rate of drug A and drug B respectively. E(A+B) in the equation represents 'measured synergistic effect' and (EA+EB-EA×EB) is 'expected synergistic effect'. CI=0.85-1.15 indicates a mere addition of the effect of two drugs, >1.15 indicates enhancement (or synergy), and <0.85 indicates antagonism. • Combination index of tumor growth inhibition: CAI, 40mg/kg + AZD9291, 1mg/kg: 1.27; […] CAI, 40mg/kg + AZD9291, 1mg/kg: 1.20; […]
# [3] = QD×21, listed as Comparative Example 5
# [4] = QD×21, listed as Comparative Example 6
# [5] = QD×21, listed as Comparative Example 5, CAI, 20mg /kg
# [6] = QD×21, listed as Comparative Example 6, CAI, 40mg /kg
# [7] = QD×21, listed as Comparative Example 2
# [8] = QD×21, listed as Comparative Example 3
smiles,measurement,setting,value
"NC(=O)c1nnn(Cc2cc(Cl)c(C(=O)c3ccc(Cl)cc3)c(Cl)c2)c1N [CAI, 5-Amino-1-[3,5-dichloro-4-(4-chlorobenzoyl chloride)benzyl]-1H-1,2,3-triazole-4-benzamide]",inhibition rate,mouse melanoma,39.8%
same,Relative tumor proliferation rate(%) Day 21,[1]; [3],69.94%
same,Relative tumor proliferation rate(%) Day 21,[1]; [4],68.46%
same,Tumor growth inhibition rate(%) Day 21,[1]; [5],33.39%
same,Tumor growth inhibition rate(%) Day 21,[1]; [6],34.01%
same,Tumor inhibition rate(%) Day 21,[1]; [3],39.40%
same,Tumor inhibition rate(%) Day 21,[1]; [4],42.96%
same,"Tumor volume (mm^3,Mean±SEM) Day 21","[1]; listed as Comparative Example 5, CAI, 20mg /kg",979.25± 64.93* mm^3
same,"Tumor volume (mm^3,Mean±SEM) Day 21","[1]; listed as Comparative Example 6, CAI, 40mg /kg",970.11± 102.46* mm^3
same,"Tumor weight (g,Mean±SEM) Day 21",[1]; [3],0.529 ± 0.055 g
same,"Tumor weight (g,Mean±SEM) Day 21",[1]; [4],0.498 ± 0.059 g
same,Relative tumor volume Day 21,[1]; [5],6.12±0.29
same,Relative tumor volume Day 21,[1]; [6],5.99±0.48
same,Relative tumor proliferation rate(%) Day 21,[2]; [7],93.04%
same,Relative tumor proliferation rate(%) Day 21,[2]; [8],93.23%
same,Tumor growth inhibition rate(%) Day 21,[2]; QD×21,12.99%
same,Tumor growth inhibition rate(%) Day 21,[2]; [8],12.33%
same,Tumor inhibition rate(%) Day 21,[2]; [7],15.76%
same,Tumor inhibition rate(%) Day 21,[2]; [8],7.06%
same,"Tumor volume (mm^3,Mean±SEM) Day 21",[2]; listed as Comparative Example 2,1536.24 ±222.57 mm^3
same,"Tumor volume (mm^3,Mean±SEM) Day 21",[2]; listed as Comparative Example 3,1547.91 ±221.67 mm^3
same,"Tumor weight (g,Mean±SEM) Day 21",[2]; [7],1.384 ± 0.266 g
same,"Tumor weight (g,Mean±SEM) Day 21",[2]; [8],1.527 ± 0.257 g
same,Relative tumor volume Day 21,[2]; [7],10.03 +1.27
same,Relative tumor volume Day 21,[2]; [8],10.05 ±1.30
